The results in this text go back to patent publication US8377961B2, “Cyclic-alkylamine derivatives as inhibitors of the interaction between MDM2 and P53” (Janssen Pharmaceutica N.V., priority 2006, dated 2013).

Read-outs that look alike come from different tables or passages of the source.

Assay [1] concerns U87MG cells. Put plainly: Proliferation assay (MTT-based) on U87MG tumour cells. The format is cell-based. The conditions noted are these: Homo sapiens, U-87 MG, 96 h, 4 days of incubation. As to the method: Cellular activity of the compounds of formula (I) was determined on U87MG tumour cells using a colorimetric assay for cell toxicity or survival (see example C.2).
U87MG cells are human glioblastoma cells with wild type p53. In this cell line MDM2 tightly controls p53 expression.
All compounds tested were dissolved in DMSO and further dilutions were made in culture medium. Final DMSO concentrations never exceeded 0.1% (v/v) in cell proliferation assays. Controls contained U87MG cells and DMSO without compound and blanks contained DMSO but no cells.
U87MG cells were seeded in 96-well cell culture plates at 3000 cells/well/100 μl. 24 hours later, medium was changed and compound and/or solvent were added to a final volume of 200 μl. Following 4 days of incubation, medium was replaced by 200 μl fresh medium and cell growth was assessed using a MTT-based assay. Therefore, 25 μl of the MTT solution (0.5% MTT research grade from Serva in phosphate-buffered saline) was added to each well and the cells were further incubated for 2 hours at 37° C. The medium was then carefully aspirated and the blue MTT-formazan product was dissolved by adding to each well 25 μl 0.1M glycin and 100 μl DMSO. The plates were shaken for another 10 min on a micro plate shaker before reading absorbance at 540 nm by a Biorad micro plate reader.
Within an experiment, the results for each experimental condition are the mean of 3 replicate wells. For initial screening purposes, compounds were tested at a single fixed concentration of 10^−5 M. For active compounds, the experiments were repeated to establish full concentration-response curves. For each experiment, controls (containing no drug) and a blank incubation (containing no cells or drugs) were run in parallel. The blank value was subtracted from all control and sample values. For each sample, the mean value for cell growth (in absorbance units) was expressed as a percentage of the mean value for cell growth of the control. When appropriate, IC50-values (concentration of the drug, needed to reduce cell growth to 50% of the control) were computed using probit analysis for graded data (Finney, D. J., Probit Analyses, 2nd Ed. Chapter 10, Graded Responses, Cambridge University Press, Cambridge 1962). Herein the effects of test compounds are expressed as pIC50 (the negative log value of the IC50-value) (see table F-2).
In some of the experiments the proliferation assay was adapted for and used in 384-well culture plates (see table F-2).

Assay [2] has as its system p53 in A2780 cells. Put plainly: p53 ELISA (capacity to preserve p53 in A2780 cells). The format is cell-based. The conditions noted are these: lowest dose giving at least 140% of the value for p53 present in the control; A2780 cells treated with compound for 16 hours. The protocol:
The capacity of the compounds to preserve p53 in A2780 cells was measured with the p53 enzyme linked immunosorbent assay. The p53 assay is a “sandwich” enzyme immunoassay employing two polyclonal antibodies. A polyclonal antibody, specific for the p53 protein, has been immobilized onto the surface of the plastic wells. Any p53 present in the sample to be assayed will bind to the capture antibody. The biotinylated detector polyclonal antibody also recognizes p53 protein, and will bind to any p53, which has been retained by the capture antibody. The detector antibody, in turn, is bond by horseradish peroxidase-conjugated streptavidin. The horseradish peroxidase catalyses the conversion of the chromogenic substrate o-phenylene diamine, the intensity of which is proportional to the amount of p53 protein bond to the plate. The colored reaction product is quantified using a spectrophotometer. Quantitation is achieved by the construction of a standard curve using known concentrations of purified recombinant HIS tagged p53 protein (see example C.1.).
A2780 cells (ATCC) were cultivated in RPMI 1640 supplemented with 10% fetal calf serum (FCS), 2 mM L-glutamine and gentamycin at 37° C. in a humidified incubator with 5% CO2.
A2780 cells were seeded at 20.000 cells per well in a 96 well plate, cultured for 24 hours and treated with compound for 16 hours at 37° C. in a humidified incubator. After incubation, the cells were washed once with phosphate-buffered saline and 30 μl, per well, low salt RIPA buffer (20 mM tris, pH7.0, 0.5 mM EDTA, 1% Nonidet P40, 0.5% DOC, 0.05% SDS, 1 mM PMSF, 1 μg/ml aprotinin and 0.5 μ/ml leupeptin) was added. Plates were placed on ice for 30 minutes to complete the lysis. p53 protein was detected in de lysates by using the sandwich ELISA, described below.
High binding polystyrene EIA/RIA 96 well plates (Costar 9018) were coated with the capture antibody pAb1801 (Abcam ab28-100) at a concentration of 1 μg/ml in coating buffer (0.1 M NaHCO3 pH8.2), 50 μl per well. The antibody was allowed to adhere overnight at 4° C. Coated plates were washed once with phosphate-buffered saline (PBS)/0.05% Tween 20 and 300 μl of blocking buffer (PBS, 1% bovine serum albumins (BSA)) was added, for an incubation period of 2 hours at room temperature. Dilutions of purified recombinant HIS tagged p53 protein, ranging from 3-200 ng/ml, were made in blocking buffer and used as standards.
Plates were washed twice with PBS/0.05% Tween 20 and blocking buffer or standards were added at 80 μl/well. To the standards, 20 μl of lysis buffer was added. The samples were added to the other wells at 20 μl lysate/well. After an overnight incubation at 4° C., plates were washed twice with PBS/0.05% Tween 20. Aliquots of 100 μl secondary polyclonal antibody p53(FL-393) (Tebubio, sc-6243) at a concentration of 1 μg/ml in blocking buffer were added to each well and allowed to adhere for 2 hours at room temperature. Plates were washed three times with PBS/0.05% Tween 20. Detection antibody anti-rabbit HRP (sc-2004, Tebubio) at 0.04 μg/ml in PBS/1% BSA was added and incubated for 1 hour at room temperature. Plates were washed three times with PBS/0.05% Tween 20 and 100 μl of substrate buffer was added (substrate buffer was prepared shortly before use by adding 1 tablet of 10 mg o-phenylene diamine (OPD) from Sigma and 125 μl 3% H2O2 to 25 ml OPD buffer: 35 mM citric acid, 66 mM Na2HPO4, pH5.6). After 5 to 10 minutes, colour reaction was stopped by adding 50 μl stop buffer (1 M H2SO4) per well. The absorbance at dual wavelengths of 490/655 nm was measured using a Biorad micro plate reader and the results were then analyzed.
For each experiment, controls (containing no drug) and a blank incubation (containing no cells or drugs) were run in parallel. The blank value was subtracted from all control and sample values. For each sample, the value of p53 (in absorbance units) was expressed as the percentage of the value for p53 present in the control. […]

The mark [3] stands for this setting: 96-well plates, read-out: cell proliferation pIC50 96 well (converted).

In the case of `c1ccc2c(CCNc3ccc4c(c3)CCN4c3ccncc3)c[nH]c2c1` [Compound 1], in assay [1] (setting [3]), the IC50 is 10 nM. Moreover, in assay [2], the A2780 p53-elisa LAD stood at 0.1 µM.
For `c1ccc2c(N3CCc4cc(NCCc5c[nH]c6ccccc56)ccc43)ccnc2c1` [Compound 2], in that order: 1700 nM and 1 µM.
The like results for `COC(=O)c1cc(N2CCc3cc(NCCc4c[nH]c5ccccc45)ccc32)ccn1` [Compound 3] were, in that order, 4170 nM and 1 µM.
For `OCc1cc(N2CCc3cc(NCCc4c[nH]c5ccccc45)ccc32)ccn1` [Compound 4], in that order: 158 nM and 0.3 µM.
As for `OC1CCc2c(N3CCc4cc(NCCc5c[nH]c6ccccc56)ccc43)ccnc21` (stereo not drawn) [Compound 5], the IC50 in assay [1] (setting [3]) is 295 nM. Also, the A2780 p53-elisa LAD in assay [2] was 0.3 µM.
With `CC1(C)CN(c2ccncc2)c2ccc(NCCc3c[nH]c4ccccc34)cc21` [Compound 6], the IC50 in assay [1] (384-well culture plates, read-out: cell proliferation pIC50 384 well (converted)) is 295 nM. The A2780 p53-elisa LAD in assay [2] is 3 µM.
